# Data from patent publication US4822800A (Ortho Pharmaceutical Corporation, priority 1986, dated 1989).
# Entries after “also recorded” stand apart in the source; their conditions may differ. Where a name gives a salt, the structure may show the parent alone. Read-outs that look alike come from different tables or passages of the source.
# How the values were obtained:
# adult mongrel dogs [1] = test: acute in vivo cardiotonic activity in anesthetized dogs; design: species or system dog (adult mongrel); details: for change in vivo at 0.1 mg/kg / change in vivo at 0.15 mg/kg / change in vivo at 0.875 mg/kg / change in vivo at 1.875 mg/kg / change in vivo at 0.375 mg/kg / change in vivo at 3.75 mg/kg: Canis lupus familiaris, cardiotonic, relative to controls; for change in vivo at 0.1 mg/kg: dose 0.100 mg/kg intravenous; for change in vivo at 0.15 mg/kg: dose 0.150 mg/kg intravenous; for change in vivo at 0.875 mg/kg: dose 0.875 mg/kg intravenous; for change in vivo at 1.875 mg/kg: dose 1.875 mg/kg intravenous; for change in vivo at 0.375 mg/kg: dose 0.375 mg/kg intravenous; for change in vivo at 3.75 mg/kg: dose 3.75 mg/kg intravenous
# Description: The acute in vivo cardiotonic activity of compounds prepared according to the present invention was determined according to a modification of the procedure described by Alousi et al., Circ. Res., 45, 666 (1979).
# In particular, adult mongrel dogs were anesthetized with sodium pentobarbital and were artificially respired. Arterial pressure was monitored via a femoral artery, and the pulse pressure was used to trigger a cardiotachometer for heart rate. Left ventricular pressure was determined with a Millar catheter, and dP/dt (the change in ventricular pressure with time) was derived. Cardiac output was determined by measuring ascending aortic blood flow with an electromagnetic flow probe, and myocardial contractile force was measured with a Walton Brodie strain gauge sutured to the right ventricle. Lead II EKG was also recorded.
# A standard dose (10 μg/kg/min) of dopamine was administered to assess myocardial responsiveness.
# Compounds of the invention were administered by intravenous infusion or bolus […] administration, and the effects on cardiovascular parameters were determined.
# Dose related effects of the test compound on blood pressure (BP), heart rate (HR), maximum change in left ventricular pressure with time (dP/dt max),% change in cardiac force (CF) and the increase in mean arterial blood pressure relative to controls (MABP) were compared to pretreatment control values, expressed as a% change and rated for activity.
# [2] = biological target: T1, Phosphodiesterase fraction III (Canis lupus familiaris, UniProt A0A8I3NYE0); test: inhibition of phosphodiesterase fraction III activity; format: biochemical, canine (heart); details: for IC50: cyclic AMP 0.10-1.0 uM, pH 7.4, canine heart enzyme; for phosphodiesterase fraction III inhibition (in words): summary of Table 5
# T1 construct: isolated as an isozyme from the crude canine heart homogenate; from tissue; host or cells: canine heart (crude homogenate, ion exchange chromatography, third and last PDE peak)
# T1 sequence (A0A8I3NYE0 1-1135): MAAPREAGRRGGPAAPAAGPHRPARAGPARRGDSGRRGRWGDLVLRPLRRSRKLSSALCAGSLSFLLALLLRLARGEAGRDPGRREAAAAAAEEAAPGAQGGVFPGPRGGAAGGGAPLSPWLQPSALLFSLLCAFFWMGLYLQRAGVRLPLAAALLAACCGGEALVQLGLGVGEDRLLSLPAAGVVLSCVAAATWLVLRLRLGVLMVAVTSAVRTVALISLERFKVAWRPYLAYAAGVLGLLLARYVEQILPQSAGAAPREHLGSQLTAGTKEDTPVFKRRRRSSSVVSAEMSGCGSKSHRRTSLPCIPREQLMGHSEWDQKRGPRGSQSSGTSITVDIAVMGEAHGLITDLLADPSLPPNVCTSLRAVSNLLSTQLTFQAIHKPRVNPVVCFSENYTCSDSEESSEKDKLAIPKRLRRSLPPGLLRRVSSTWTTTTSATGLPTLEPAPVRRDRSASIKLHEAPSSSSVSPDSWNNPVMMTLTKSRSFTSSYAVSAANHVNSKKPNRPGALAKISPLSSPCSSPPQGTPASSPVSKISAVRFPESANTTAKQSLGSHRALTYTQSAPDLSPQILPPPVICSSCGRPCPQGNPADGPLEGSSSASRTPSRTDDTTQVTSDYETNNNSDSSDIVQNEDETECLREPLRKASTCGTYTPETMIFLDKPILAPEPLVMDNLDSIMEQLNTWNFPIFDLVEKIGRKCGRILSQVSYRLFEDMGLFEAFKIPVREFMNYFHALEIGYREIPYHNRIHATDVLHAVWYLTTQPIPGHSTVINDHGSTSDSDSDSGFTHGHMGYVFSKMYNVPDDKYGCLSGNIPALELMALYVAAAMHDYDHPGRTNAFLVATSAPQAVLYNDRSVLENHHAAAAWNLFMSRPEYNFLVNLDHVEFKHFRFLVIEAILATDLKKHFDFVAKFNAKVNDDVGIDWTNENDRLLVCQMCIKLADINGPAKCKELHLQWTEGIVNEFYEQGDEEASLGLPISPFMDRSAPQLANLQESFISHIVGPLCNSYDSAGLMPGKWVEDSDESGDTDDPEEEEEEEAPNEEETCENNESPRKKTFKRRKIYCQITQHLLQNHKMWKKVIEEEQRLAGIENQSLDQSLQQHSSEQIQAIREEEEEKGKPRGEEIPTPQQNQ
# adult mongrel dogs [3] = test: renal vasodilating activity in anesthetized dogs; format: in vivo, dog (adult mongrel); details: for change in vivo at 0.2 mg/kg / change in vivo at 1.2 mg/kg / change in vivo at 13.9 mg/kg / change in vivo at up to 13.9 mg/kg: Canis lupus familiaris, renal vasodilator, relative to controls; for change in vivo at 0.2 mg/kg: dose 0.2 mg/kg intravenous; for change in vivo at 1.2 mg/kg: dose 1.2 mg/kg intravenous; for change in vivo at 13.9 mg/kg / change in vivo at up to 13.9 mg/kg: dose 13.9 mg/kg intravenous
# Description: Goldberg et al, J. Pharmacol. Exp. Ther., 163, 188 (1968), performed an investigation of the structural requirements for dopamine-like renal vasodilation of phenethylamines and apomorphine. The following procedure is a variation of the assay described in that report.
# Adult mongrel dogs were anesthetized and surgically prepared for electromagnetic measurement of renal artery blood flow. A carotid artery was cannulated for measuring arterial blood pressure, and drugs were administered intravenously. Heart rate was monitored with a cardiotachometer. Renal vascular resistance was calculated as the ratio of mean arterial blood pressure/renal artery blood flow. Dopamine was infused intravenously at 3 μg/kg/min for ten minutes (at an infusion rate of about 1 ml/min) to determine responsiveness of each dog to renal dopamine receptor stimulation. Cumulative dose-response data were obtained by infusing a compound of this invention at progressively increasing (usually three-fold) infusion rates, each dose being infused for five minutes. The maximum % increase from pre-drug control in renal artery blood flow (or a decrease in renal vascular resistance) was determined for each infusion dose.
# RBF values are percent change in renal blood flow. RVR values are percent change in renal vascular resistance. MABP and HR are percent changes in mean arterial blood pressure and heart rate, respectively, relative to controls.
# [4] = read-out: MABP (mean arterial blood pressure)
# [5] = read-out: dP/dt (maximum change left ventricular pressure with time)
# [6] = read-out: RBF (renal blood flow)
# [7] = read-out: RVR (renal vascular resistance)
compound,measurement,setting,value
COc1cc2c(C)nc(O)c(C)c2cc1OC [AB],change in vivo at 0.1 mg/kg,adult mongrel dogs [1]; read-out: CF (cardiac force),80%
same,change in vivo at 0.1 mg/kg,adult mongrel dogs [1]; read-out: HR (heart rate),15%
same,change in vivo at 0.1 mg/kg,adult mongrel dogs [1]; [4],-4%
same,change in vivo at 0.1 mg/kg,adult mongrel dogs [1]; [5],48%
same,IC50,[2],8.3 µM
same,phosphodiesterase fraction III inhibition (in words),[2],inhibit phosphodiesterase fraction III activity
COc1cc2c(C)nc(O)c(C(C)C)c2cc1OC [AF],change in vivo at 0.2 mg/kg,adult mongrel dogs [3]; read-out: HR (heart rate),28%
same,change in vivo at 0.2 mg/kg,adult mongrel dogs [3]; [4],-16%
same,change in vivo at 0.2 mg/kg,adult mongrel dogs [3]; [6],11%
same,change in vivo at 0.2 mg/kg,adult mongrel dogs [3]; [7],-24%
same,renal vasodilating activity (in words),adult mongrel dogs [3]; summary of Table 4,renal vasodilating properties
same,change in vivo at 0.15 mg/kg,adult mongrel dogs [1]; read-out: CF (cardiac force),92%
same,change in vivo at 0.15 mg/kg,adult mongrel dogs [1]; read-out: HR (heart rate),8%
same,change in vivo at 0.15 mg/kg,adult mongrel dogs [1]; [4],-15%
same,change in vivo at 0.15 mg/kg,adult mongrel dogs [1]; [5],60%
same,cardiotonic activity (in words),adult mongrel dogs [1]; summary of Table 4,cardiotonic properties
same,IC50,[2],12.3 µM
same,phosphodiesterase fraction III inhibition (in words),[2],inhibit phosphodiesterase fraction III activity; also recorded: phosphodiesterase fraction III inhibiting properties
"Br.COc1cc2c(C)nc(O)c(Br)c2cc1OC.O [Compound AC, 4-Bromo-3-hydroxy-6,7-dimethoxy-1-methylisoquinoline Hydrobromide Monohydrate]",change in vivo at 0.2 mg/kg,adult mongrel dogs [3]; [6],8%
same,change in vivo at 0.2 mg/kg,adult mongrel dogs [3]; [7],-27%
same,change in vivo at 0.875 mg/kg,adult mongrel dogs [1]; read-out: CF (cardiac force),128%
same,change in vivo at 0.875 mg/kg,adult mongrel dogs [1]; read-out: HR (heart rate),26%
same,change in vivo at 0.875 mg/kg,adult mongrel dogs [1]; [4],-40%
same,change in vivo at 0.875 mg/kg,adult mongrel dogs [1]; [5],25%
same,IC50,[2],10 µM
same,phosphodiesterase fraction III inhibition (in words),[2],inhibit phosphodiesterase fraction III activity
Cc1nc(O)c(Cl)c2cc3c(cc12)OCO3 [AG],change in vivo at 1.2 mg/kg,adult mongrel dogs [3]; read-out: HR (heart rate),27%
same,change in vivo at 1.2 mg/kg,adult mongrel dogs [3]; [4],-27%
same,change in vivo at 1.2 mg/kg,adult mongrel dogs [3]; [6],10%
same,change in vivo at 1.2 mg/kg,adult mongrel dogs [3]; [7],-34%
same,change in vivo at 1.875 mg/kg,adult mongrel dogs [1]; read-out: CF (cardiac force),88%
same,change in vivo at 1.875 mg/kg,adult mongrel dogs [1]; read-out: HR (heart rate),28%
same,change in vivo at 1.875 mg/kg,adult mongrel dogs [1]; [4],-22%
same,change in vivo at 1.875 mg/kg,adult mongrel dogs [1]; [5],51%
CCOc1cc2c(C)nc(O)cc2cc1OC [AK],change in vivo at 0.2 mg/kg,adult mongrel dogs [3]; read-out: HR (heart rate),10%
same,change in vivo at 0.2 mg/kg,adult mongrel dogs [3]; [4],-2%
same,change in vivo at 0.2 mg/kg,adult mongrel dogs [3]; [6],10%
same,change in vivo at 0.2 mg/kg,adult mongrel dogs [3]; [7],-11%
same,change in vivo at 0.375 mg/kg,adult mongrel dogs [1]; read-out: CF (cardiac force),114%
same,change in vivo at 0.375 mg/kg,adult mongrel dogs [1]; read-out: HR (heart rate),13%
same,change in vivo at 0.375 mg/kg,adult mongrel dogs [1]; [4],-5%
same,change in vivo at 0.375 mg/kg,adult mongrel dogs [1]; [5],39%
"Cc1nc(O)c(CCC(=O)O)c2cc(O)c(O)cc12 [Compound G, 4-β-Carboxyethyl-3,6,7-trihydroxy-1-methyl-3-isoquinoline Hydrobromide]",change in vivo at 13.9 mg/kg,adult mongrel dogs [3]; read-out: HR (heart rate),-3%
same,change in vivo at 13.9 mg/kg,adult mongrel dogs [3]; [4],-5%
same,change in vivo at 13.9 mg/kg,adult mongrel dogs [3]; [6],11%
same,change in vivo at up to 13.9 mg/kg,adult mongrel dogs [3]; [7],-14%
same,change in vivo at 3.75 mg/kg,adult mongrel dogs [1]; read-out: CF (cardiac force),82%
same,change in vivo at 3.75 mg/kg,adult mongrel dogs [1]; read-out: HR (heart rate),13%
same,change in vivo at 3.75 mg/kg,adult mongrel dogs [1]; [4],-10%
same,change in vivo at 3.75 mg/kg,adult mongrel dogs [1]; [5],32%
COc1cc2cc(O)nc(C)c2c(OC)c1OC [H],change in vivo at 13.9 mg/kg,adult mongrel dogs [3]; read-out: HR (heart rate),20%
same,change in vivo at 13.9 mg/kg,adult mongrel dogs [3]; [4],-12%
same,change in vivo at 13.9 mg/kg,adult mongrel dogs [3]; [6],41%
same,change in vivo at up to 13.9 mg/kg,adult mongrel dogs [3]; [7],-38%
same,change in vivo at 0.875 mg/kg,adult mongrel dogs [1]; read-out: CF (cardiac force),76%
same,change in vivo at 0.875 mg/kg,adult mongrel dogs [1]; read-out: HR (heart rate),13%
same,change in vivo at 0.875 mg/kg,adult mongrel dogs [1]; [4],-2%
same,change in vivo at 0.875 mg/kg,adult mongrel dogs [1]; [5],45%
"COc1cc2c(C)nc(O)c(CCC(=O)O)c2cc1OC [Compound E, 4-β-Carboxyethyl-3-hydroxy-6,7-dimethoxy-1-methylisoquinoline]",change in vivo at 13.9 mg/kg,adult mongrel dogs [3]; read-out: HR (heart rate),11%
same,change in vivo at 13.9 mg/kg,adult mongrel dogs [3]; [4],-7%
same,change in vivo at 13.9 mg/kg,adult mongrel dogs [3]; [6],7%
same,change in vivo at up to 13.9 mg/kg,adult mongrel dogs [3]; [7],-13%
same,change in vivo at 1.875 mg/kg,adult mongrel dogs [1]; read-out: CF (cardiac force),75%
same,change in vivo at 1.875 mg/kg,adult mongrel dogs [1]; read-out: HR (heart rate),5%
same,change in vivo at 1.875 mg/kg,adult mongrel dogs [1]; [4],-3%
same,change in vivo at 1.875 mg/kg,adult mongrel dogs [1]; [5],42%
